According to PubChem BioAssay (NCI):
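The concentration for 50% growth inhibition is given as GI50. TGI is the concentration that stops growth completely.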

How the values were obtained:
Assay in all cases: NCI-60 cell line screen, 384-well format
SK-MEL-28 melanoma = test system: SK-MEL-28 melanoma
HT29 colon = test system: HT29 colon
NCI-H322M lung = test system: NCI-H322M lung
BT-549 breast = test system: BT-549 breast
HCT-15 colon = test system: HCT-15 colon
SN12C renal = test system: SN12C renal
MDA-MB-468 breast = test system: MDA-MB-468 breast
RXF 393 renal = test system: RXF 393 renal
SR leukemia = test system: SR leukemia
NCI/ADR-RES ovarian = test system: NCI/ADR-RES ovarian
OVCAR-4 ovarian = test system: OVCAR-4 ovarian
CCRF-CEM leukemia = test system: CCRF-CEM leukemia
MDA-MB-231 breast = test system: MDA-MB-231 breast
UACC-62 melanoma = test system: UACC-62 melanoma
COLO 205 colon = test system: COLO 205 colon
SF-295 CNS = test system: SF-295 CNS
UO-31 renal = test system: UO-31 renal
786-0 renal = test system: 786-0 renal
IGROV1 ovarian = test system: IGROV1 ovarian
HOP-62 NSCLC = test system: HOP-62 NSCLC
DU-145 prostate = test system: DU-145 prostate
OVCAR-3 ovarian = test system: OVCAR-3 ovarian
A498 renal = test system: A498 renal
RPMI-8226 leukemia = test system: RPMI-8226 leukemia
M14 melanoma = test system: M14 melanoma
U251 glioblastoma = test system: U251 glioblastoma
KM12 colon = test system: KM12 colon
SF-268 CNS = test system: SF-268 CNS
NCI-H23 lung = test system: NCI-H23 lung
OVCAR-8 ovarian = test system: OVCAR-8 ovarian
MALME-3M melanoma = test system: MALME-3M melanoma
PC-3 prostate = test system: PC-3 prostate
CAKI-1 renal = test system: CAKI-1 renal
A549 NSCLC = test system: A549 NSCLC
OVCAR-5 ovarian = test system: OVCAR-5 ovarian
SW-620 colon = test system: SW-620 colon
ACHN renal = test system: ACHN renal
UACC-257 melanoma = test system: UACC-257 melanoma
SF-539 CNS = test system: SF-539 CNS
SNB-19 CNS = test system: SNB-19 CNS
TK-10 renal = test system: TK-10 renal
NCI-H226 lung = test system: NCI-H226 lung
NCI-H460 NSCLC = test system: NCI-H460 NSCLC
NCI-H522 lung = test system: NCI-H522 lung
SK-MEL-2 melanoma = test system: SK-MEL-2 melanoma
HCC-2998 colon = test system: HCC-2998 colon
SK-OV-3 ovarian = test system: SK-OV-3 ovarian
MCF7 breast = test system: MCF7 breast
HL-60(TB) leukemia = test system: HL-60(TB) leukemia
MOLT-4 leukemia = test system: MOLT-4 leukemia
HCT-116 colon = test system: HCT-116 colon
SK-MEL-5 melanoma = test system: SK-MEL-5 melanoma
MDA-MB-435 melanoma = test system: MDA-MB-435 melanoma
HOP-92 NSCLC = test system: HOP-92 NSCLC
T-47D breast = test system: T-47D breast
LOX IMVI melanoma = test system: LOX IMVI melanoma

**Q.** `Cc1ncc(NC(=O)c2ccc(CN3CCN(C)CC3)c(C(F)(F)F)c2)cc1Nc1nccc(-c2cccnc2)n1` was tested. Which GI50 (SK-MEL-28 melanoma) did it give?
**A.** 1.78 µM

**Q.** What about the TGI (SK-MEL-28 melanoma) of the same compound?
**A.** 14.9 µM

**Q.** What about the GI50 (HT29 colon) of the same compound?
**A.** 1.04 µM

**Q.** And the TGI (HT29 colon)?
**A.** 2.22 µM

**Q.** And the GI50 (NCI-H322M lung)?
**A.** 10.9 µM

**Q.** What about the TGI (NCI-H322M lung) of the same compound?
**A.** 22.9 µM

**Q.** What about the GI50 (BT-549 breast) of the same compound?
**A.** 2.17 µM

**Q.** And the TGI (BT-549 breast)?
**A.** 3.69 µM

**Q.** And the GI50 (HCT-15 colon)?
**A.** 1.82 µM

**Q.** What about the TGI (HCT-15 colon) of the same compound?
**A.** 3.6 µM

**Q.** And the GI50 (SN12C renal)?
**A.** 17.4 µM

**Q.** And the TGI (SN12C renal)?
**A.** 31.2 µM

**Q.** What about the GI50 (MDA-MB-468 breast) of the same compound?
**A.** 10.8 µM

**Q.** What about the TGI (MDA-MB-468 breast) of the same compound?
**A.** 22.8 µM

**Q.** And the GI50 (RXF 393 renal)?
**A.** 1.66 µM

**Q.** What about the TGI (RXF 393 renal) of the same compound?
**A.** 3.59 µM

**Q.** What about the GI50 (SR leukemia) of the same compound?
**A.** 1.66 µM

**Q.** And the TGI (SR leukemia)?
**A.** 3.02 µM

**Q.** What about the GI50 (NCI/ADR-RES ovarian) of the same compound?
**A.** 10.6 µM

**Q.** And the TGI (NCI/ADR-RES ovarian)?
**A.** 22.4 µM

**Q.** And the GI50 (OVCAR-4 ovarian)?
**A.** 2.63 µM

**Q.** And the TGI (OVCAR-4 ovarian)?
**A.** 14.1 µM

**Q.** And the GI50 (CCRF-CEM leukemia)?
**A.** 1.61 µM

**Q.** And the TGI (CCRF-CEM leukemia)?
**A.** 2.96 µM

**Q.** And the GI50 (MDA-MB-231 breast)?
**A.** 1.55 µM

**Q.** What about the TGI (MDA-MB-231 breast) of the same compound?
**A.** 2.98 µM

**Q.** And the GI50 (UACC-62 melanoma)?
**A.** 1.35 µM

**Q.** And the TGI (UACC-62 melanoma)?
**A.** 13.8 µM

**Q.** And the GI50 (COLO 205 colon)?
**A.** 1.27 µM

**Q.** And the TGI (COLO 205 colon)?
**A.** 14.5 µM

**Q.** What about the GI50 (SF-295 CNS) of the same compound?
**A.** 19.5 µM

**Q.** And the TGI (SF-295 CNS)?
**A.** 33.7 µM

**Q.** What about the GI50 (UO-31 renal) of the same compound?
**A.** 11.4 µM

**Q.** What about the TGI (UO-31 renal) of the same compound?
**A.** 23.5 µM

**Q.** What about the GI50 (786-0 renal) of the same compound?
**A.** 1.51 µM

**Q.** What about the TGI (786-0 renal) of the same compound?
**A.** 2.89 µM

**Q.** And the GI50 (IGROV1 ovarian)?
**A.** 13.2 µM

**Q.** What about the TGI (IGROV1 ovarian) of the same compound?
**A.** 26 µM

**Q.** And the GI50 (HOP-62 NSCLC)?
**A.** 13.8 µM

**Q.** What about the TGI (HOP-62 NSCLC) of the same compound?
**A.** 26.8 µM

**Q.** And the GI50 (DU-145 prostate)?
**A.** 15.4 µM

**Q.** What about the TGI (DU-145 prostate) of the same compound?
**A.** 28.8 µM

**Q.** And the GI50 (OVCAR-3 ovarian)?
**A.** 1.74 µM

**Q.** What about the TGI (OVCAR-3 ovarian) of the same compound?
**A.** 3.31 µM

**Q.** What about the GI50 (A498 renal) of the same compound?
**A.** 1.89 µM

**Q.** What about the TGI (A498 renal) of the same compound?
**A.** 3.55 µM

**Q.** And the GI50 (RPMI-8226 leukemia)?
**A.** 0.745 µM

**Q.** And the TGI (RPMI-8226 leukemia)?
**A.** 2 µM

**Q.** What about the GI50 (M14 melanoma) of the same compound?
**A.** 0.798 µM

**Q.** And the TGI (M14 melanoma)?
**A.** 12.3 µM

**Q.** And the GI50 (U251 glioblastoma)?
**A.** 1.82 µM

**Q.** What about the TGI (U251 glioblastoma) of the same compound?
**A.** 3.31 µM

**Q.** And the GI50 (KM12 colon)?
**A.** 1.57 µM

**Q.** What about the TGI (KM12 colon) of the same compound?
**A.** 3.11 µM

**Q.** And the GI50 (SF-268 CNS)?
**A.** 10.4 µM

**Q.** And the TGI (SF-268 CNS)?
**A.** 22.2 µM

**Q.** And the GI50 (NCI-H23 lung)?
**A.** 13.7 µM

**Q.** What about the TGI (NCI-H23 lung) of the same compound?
**A.** 26.7 µM

**Q.** And the GI50 (OVCAR-8 ovarian)?
**A.** 11.3 µM

**Q.** And the TGI (OVCAR-8 ovarian)?
**A.** 23.5 µM

**Q.** And the GI50 (MALME-3M melanoma)?
**A.** 0.289 µM

**Q.** And the TGI (MALME-3M melanoma)?
**A.** 1.46 µM

**Q.** And the GI50 (PC-3 prostate)?
**A.** 13.6 µM

**Q.** What about the TGI (PC-3 prostate) of the same compound?
**A.** 26.6 µM

**Q.** What about the GI50 (CAKI-1 renal) of the same compound?
**A.** 7.3 µM

**Q.** And the TGI (CAKI-1 renal)?
**A.** 19.4 µM

**Q.** And the GI50 (A549 NSCLC)?
**A.** 2.54 µM

**Q.** What about the TGI (A549 NSCLC) of the same compound?
**A.** 8.6 µM

**Q.** And the GI50 (OVCAR-5 ovarian)?
**A.** 14.4 µM

**Q.** And the TGI (OVCAR-5 ovarian)?
**A.** 27.6 µM

**Q.** What about the GI50 (SW-620 colon) of the same compound?
**A.** 1.84 µM

**Q.** What about the TGI (SW-620 colon) of the same compound?
**A.** 3.29 µM

**Q.** And the GI50 (ACHN renal)?
**A.** 12.6 µM

**Q.** What about the TGI (ACHN renal) of the same compound?
**A.** 25.2 µM

**Q.** What about the GI50 (UACC-257 melanoma) of the same compound?
**A.** 1.06 µM

**Q.** And the TGI (UACC-257 melanoma)?
**A.** 2.24 µM

**Q.** What about the GI50 (SF-539 CNS) of the same compound?
**A.** 1.32 µM

**Q.** What about the TGI (SF-539 CNS) of the same compound?
**A.** 2.6 µM

**Q.** What about the GI50 (SNB-19 CNS) of the same compound?
**A.** 15.7 µM

**Q.** And the TGI (SNB-19 CNS)?
**A.** 29.2 µM

**Q.** What about the GI50 (TK-10 renal) of the same compound?
**A.** 12.9 µM

**Q.** What about the TGI (TK-10 renal) of the same compound?
**A.** 25.5 µM

**Q.** What about the GI50 (NCI-H226 lung) of the same compound?
**A.** 12.4 µM

**Q.** What about the TGI (NCI-H226 lung) of the same compound?
**A.** 25 µM

**Q.** And the GI50 (NCI-H460 NSCLC)?
**A.** 1.65 µM

**Q.** And the TGI (NCI-H460 NSCLC)?
**A.** 3.26 µM

**Q.** And the GI50 (NCI-H522 lung)?
**A.** 3.05 µM

**Q.** What about the TGI (NCI-H522 lung) of the same compound?
**A.** 17.8 µM

**Q.** What about the GI50 (SK-MEL-2 melanoma) of the same compound?
**A.** 2.46 µM

**Q.** And the TGI (SK-MEL-2 melanoma)?
**A.** 8.05 µM

**Q.** And the GI50 (HCC-2998 colon)?
**A.** 3.72 µM

**Q.** What about the TGI (HCC-2998 colon) of the same compound?
**A.** 17.6 µM

**Q.** And the GI50 (SK-OV-3 ovarian)?
**A.** 1.94 µM

**Q.** What about the TGI (SK-OV-3 ovarian) of the same compound?
**A.** 3.89 µM

**Q.** What about the GI50 (MCF7 breast) of the same compound?
**A.** 1.43 µM

**Q.** What about the TGI (MCF7 breast) of the same compound?
**A.** 2.79 µM

**Q.** And the GI50 (HL-60(TB) leukemia)?
**A.** 0.956 µM

**Q.** And the TGI (HL-60(TB) leukemia)?
**A.** 2.12 µM

**Q.** What about the GI50 (MOLT-4 leukemia) of the same compound?
**A.** 1.28 µM

**Q.** What about the TGI (MOLT-4 leukemia) of the same compound?
**A.** 2.54 µM

**Q.** What about the GI50 (HCT-116 colon) of the same compound?
**A.** 1.18 µM

**Q.** What about the TGI (HCT-116 colon) of the same compound?
**A.** 2.43 µM

**Q.** And the GI50 (SK-MEL-5 melanoma)?
**A.** 1.44 µM

**Q.** And the TGI (SK-MEL-5 melanoma)?
**A.** 16.4 µM

**Q.** What about the GI50 (MDA-MB-435 melanoma) of the same compound?
**A.** 4.56 µM

**Q.** What about the TGI (MDA-MB-435 melanoma) of the same compound?
**A.** 19.2 µM

**Q.** And the GI50 (HOP-92 NSCLC)?
**A.** 6.68 µM

**Q.** What about the TGI (HOP-92 NSCLC) of the same compound?
**A.** 19.4 µM

**Q.** And the GI50 (T-47D breast)?
**A.** 12.1 µM

**Q.** And the TGI (T-47D breast)?
**A.** 24.6 µM

**Q.** What about the GI50 (LOX IMVI melanoma) of the same compound?
**A.** 1.95 µM

**Q.** What about the TGI (LOX IMVI melanoma) of the same compound?
**A.** 3.37 µM
